“And” between values parts separate entries of the source, which are not always exact repeats. Equal entries are not always repeated. Inconclusive results and toxic doses are left out.
System: P388 leukemia ip, CD2F1 mice, survival T/C
Assay: NCI In Vivo Anticancer Drug Screen. Data for tumor model P388 Leukemia (intraperitoneal) in CD2F1 (CDF1) mice
Conditions: endpoint: median survival time, higher = longer survival
In short: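 Mice carrying the transplanted tumor received test compound or vehicle. Survival was recorded in each group, and the value is the treated-group measurement divided by that of the vehicle-treated control group.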

[1] = dose: 50.0 mg/kg/injection, schedule: Q01DX005 (ip), vehicle: Klucel (hydroxypropylcellulose) (HPC)
[2] = dose: 100.0 mg/kg/injection, schedule: Q01DX005 (ip), vehicle: Klucel (hydroxypropylcellulose) (HPC)
[3] = dose: 200.0 mg/kg/injection, schedule: Q01DX005 (ip), vehicle: Klucel (hydroxypropylcellulose) (HPC)
[4] = dose: 25.0 mg/kg/injection, schedule: Q01DX005 (ip), vehicle: Klucel (hydroxypropylcellulose) (HPC)
[5] = dose: 100.0 mg/kg/injection, schedule: Q01DX009 (ip), vehicle: saline
[6] = dose: 200.0 mg/kg/injection, schedule: Q01DX009 (ip), vehicle: saline

Structure (SMILES): COc1cc(-c2nn(CN3CCOCC3)c(=S)o2)cc(OC)c1OC
- T/C [1]: 96 % of control
- T/C [2]: 97 % of control
- T/C [3]: 99 % of control

Structure (SMILES): C=C(C)c1nc(N)nc(NCc2ccccc2)n1
- T/C [1]: 100 % of control
- T/C [2]: 102 % of control
- T/C [3]: 109 % of control

Structure (SMILES): C=CCn1c(=S)sc2ccccc21
- T/C (dose: 6.25 mg/kg/injection, schedule: Q01DX009 (ip), vehicle: Klucel (hydroxypropylcellulose) (HPC)): 105 % of control
- T/C (dose: 12.5 mg/kg/injection, schedule: Q01DX009 (ip), vehicle: Klucel (hydroxypropylcellulose) (HPC)): 105 % of control
- T/C (dose: 25.0 mg/kg/injection, schedule: Q01DX009 (ip), vehicle: Klucel (hydroxypropylcellulose) (HPC)): 104 % of control

Structure (SMILES): O=C(/C=C/C=C/c1ccccc1)CCc1ccccc1
- T/C [4]: 95 % of control
- T/C [1]: 101 % of control
- T/C [2]: 100 % of control
- T/C [3]: 92 % of control

Structure (SMILES): C[C@@]12O[C@]1(C)[C@@H]1[C@H]3O[C@H]3[C@@H]2N(C(=O)OCC(Cl)(Cl)Cl)N1C(=O)OCC(Cl)(Cl)Cl
- T/C [1]: 100 % of control
- T/C [2]: 105 % of control
- T/C [3]: 100 % of control

Structure (SMILES): CC1(C)Cc2[nH]c3ccccc3c(=O)c2-c2nc3ccccc3c(=O)n21
- T/C (dose: 12.5 mg/kg/injection, schedule: Q01DX005 (ip), vehicle: Klucel (hydroxypropylcellulose) (HPC)): 98 % of control
- T/C [4]: 88 % of control
- T/C [1]: 90 % of control
- T/C [2]: 98 % of control
- T/C [3]: 116 % of control

Structure (SMILES): CCC(CC)c1ccccn1
- T/C [5]: 101 % of control
- T/C (dose: 100.0 mg/kg/injection, schedule: Q04DX003 (ip), vehicle: saline): 122 % of control
- T/C [6]: 105 % of control

Structure (SMILES): Nc1nc(N)c2c(Cl)c(CNc3ccc(C(=O)NC(CC(=O)O)C(=O)O)cc3)ccc2n1 (stereo not drawn)
- T/C (dose: 0.39 mg/kg/injection, schedule: Q01DX009 (ip), vehicle: saline with Tween-80): 210 % of control
- T/C (dose: 0.78 mg/kg/injection, schedule: Q01DX009 (ip), vehicle: saline with Tween-80): 201 % of control
- T/C (dose: 1.56 mg/kg/injection, schedule: Q01DX009 (ip), vehicle: saline with Tween-80): 90 % of control
- T/C (dose: 780.0 micrograms/kg/injection, schedule: Q01DX009 (ip), vehicle: saline with Tween-80): 194 % of control
- T/C (dose: 1560.0 micrograms/kg/injection, schedule: Q01DX009 (ip), vehicle: saline with Tween-80): 94 % of control

Structure (SMILES): CC1c2ccccc2-c2ccccc2N1C(=O)c1cccc(C(=O)N2c3ccccc3-c3ccccc3C2C)n1 (stereo not drawn)
- T/C (dose: 60.0 mg/kg/injection, schedule: Q01DX005 (ip), vehicle: saline with Tween-80): 93 % of control
- T/C (dose: 120.0 mg/kg/injection, schedule: Q01DX005 (ip), vehicle: saline with Tween-80): 98 % of control
- T/C (dose: 240.0 mg/kg/injection, schedule: Q01DX005 (ip), vehicle: saline with Tween-80): 90 % of control

Structure (SMILES): COc1cccc2c1C(=O)c1c(O)c3c(c(O)c1C2=O)C[C@@](O)(/C(C)=N/NS(C)(=O)=O)C[C@@H]3OC1CC(N)C(O)C(C)O1 (stereo partly drawn)
- T/C (dose: 3.13 mg/kg/injection, schedule: Q01DX009 (ip), vehicle: water): 157 % of control
- T/C (dose: 6.25 mg/kg/injection, schedule: Q01DX009 (ip), vehicle: water): 164 % of control and 166 % of control
- T/C (dose: 12.5 mg/kg/injection, schedule: Q01DX009 (ip), vehicle: water): 183 % of control and 187 % of control
- T/C (dose: 25.0 mg/kg/injection, schedule: Q01DX009 (ip), vehicle: saline): 166 % of control
- T/C (dose: 25.0 mg/kg/injection, schedule: Q01DX009 (ip), vehicle: water): 117 % of control and 201 % of control
- T/C (dose: 50.0 mg/kg/injection, schedule: Q01DX009 (ip), vehicle: saline): 193 % of control
- T/C (dose: 50.0 mg/kg/injection, schedule: Q01DX009 (ip), vehicle: water): 99 % of control
- T/C [5]: 283 % of control
- T/C [6]: 108 % of control

Structure (SMILES): CC1=CC2(C)C3C=C(C)C(C2C(=O)C1=O)C(C)(O)C3=O (stereo not drawn)
- T/C (dose: 50.0 mg/kg/injection, schedule: Q01DX005 (ip), vehicle: saline with Tween-80): 97 % of control
- T/C (dose: 100.0 mg/kg/injection, schedule: Q01DX005 (ip), vehicle: saline with Tween-80): 106 % of control
- T/C (dose: 200.0 mg/kg/injection, schedule: Q01DX005 (ip), vehicle: saline with Tween-80): 106 % of control

Structure (SMILES): C=C(C)C(=O)OC1c2c(C)coc2C(=O)C2CCCC(C)C21C (stereo not drawn)
- T/C (dose: 25.0 mg/kg/injection, schedule: Q01DX009 (ip), vehicle: saline with Tween-80): 101 % of control
- T/C (dose: 50.0 mg/kg/injection, schedule: Q01DX009 (ip), vehicle: saline with Tween-80): 98 % of control
- T/C (dose: 100.0 mg/kg/injection, schedule: Q01DX009 (ip), vehicle: saline with Tween-80): 102 % of control
- T/C (dose: 200.0 mg/kg/injection, schedule: Q01DX009 (ip), vehicle: saline with Tween-80): 96 % of control

Reference: PubChem BioAssay AID330 (DTP/NCI, 2004)
